In data set [1] the target is MtTrxR (Mycobacterium tuberculosis thioredoxin reductase) (Mycobacterium tuberculosis, UniProt P9WHH1). In words: MtTrxR activity assay according to Lu et al. (DTNB assay). The format is biochemical. The conditions noted are these: error range = standard deviation. How it is done: The compounds according to the invention show good inhibitory activity towards MtTrxR. In a preferred embodiment, the compounds according to the invention have an IC50 value according to Lu et al. from 0.10 to 10.00 μM. Methods for determining the IC50 value according to Lu et al. are known to those skilled in the art. Reference is made in this respect to J. Lu, A. Vlamis-Gardikas, K. Kandasamy, R. Zhao, T. N. Gustafsson, L. Engstrand, S. Hoffner, L. Engman, A. Holmgren, FASEB J. 2013, 27, 1394-1403.
MtTrxR (Mycobacterium tuberculosis thioredoxin reductase), sequence (P9WHH1 whole entry): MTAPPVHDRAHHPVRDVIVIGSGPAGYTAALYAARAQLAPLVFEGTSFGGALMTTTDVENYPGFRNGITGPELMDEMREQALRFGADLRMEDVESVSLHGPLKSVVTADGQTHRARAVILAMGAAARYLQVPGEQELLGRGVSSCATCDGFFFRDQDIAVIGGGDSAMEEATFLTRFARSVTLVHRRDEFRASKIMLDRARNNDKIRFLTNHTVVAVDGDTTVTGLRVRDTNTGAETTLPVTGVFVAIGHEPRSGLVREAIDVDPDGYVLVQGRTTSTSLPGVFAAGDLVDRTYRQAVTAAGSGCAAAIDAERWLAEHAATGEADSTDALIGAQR
(§1) A biochemical evaluation of the inhibitory activity (i.e. the IC50 value) of the compounds obtained towards MtTrxR by means of an activity assay according to Lu et al. (error range indicated by the standard deviation) was conducted. The testing of the potential inhibitors against MtTrxR was performed according to the description of Lu et al. Furthermore, MIC50 values (generic minimum inhibitory concentration) of certain compounds were measured with the BD BACTEC™ MGIT™ system: […]

The test system of data set [2] is Mycobacterium tuberculosis. Description: MIC50 measured with the BD BACTEC MGIT system. The format is cell-based. The settings on record: read-out: MIC50 [μM] (μG/mL). How it is done: as §1
Data set [3] deals with Mycobacterium tuberculosis. In words: Antimycobacterial activity (FIG. 1). The data set is classed as cell-based. From the text:
FIG. 1 is directed to the antimycobacterial activity of compounds 2, 8 and 68 according to the invention.

Data set [4] is classed as in vitro ADME. As to the method: Selected compounds were investigated in terms of their permeability with the aid of the PAMPA assay (Parallel Artificial Membrane Permeation Assay). The permeability of the compounds across an artificial membrane of phospholipids was tested in a filter plate. Since a significant difference existed between the artificial membrane and the mycobacterial cell wall, the values should only be used as a measure to be able to evaluate the permeability of the compounds with respect to each other. For this purpose, the distribution between a donor and acceptor chamber without membrane was determined as the reference value (100% flux), in which the concentration of the compounds in the chambers was determined spectrophotometrically. Subsequently, the permeability of compounds 1, 8, 63 and 68 across the membrane used was determined. The PAMPA flux [%] value was 12.60 for compound 1, 29.70 for compound 8, 53.60 for compound 63, and 41.00 for compound 68.

The test system of data set [5] is Mycobacterium tuberculosis strain H37Rv in infected human macrophages. Description: Antimycobacterial activity in infected human macrophages (FIG. 2). The data set is classed as cell-based. From the text: FIG. 2 is directed to the antimycobacterial activity of compound 68 according to the invention against Mycobacterium tuberculosis strain H37Rv in infected human macrophages.

Data set [6] relates to human macrophages. The format is cell-based. From the text: FIG. 3 is directed to the cytotoxic activity of compound 68 according to the invention against human macrophages.

Values after ≈ are worked out from the molar mass of the structure shown. Values joined by “and” are separate entries in the source; they are usually repeats but may differ in a detail not shown here. Equal entries are not always repeated. Where only a bound is given, the exact number is not on record here.

For `COc1ccc2nc(C)cc(Nc3ccc(S(=O)(=O)c4ccc(Nc5ccncc5)cc4)cc3)c2c1` [Compound 2, 6-methoxy-2-methyl-N-(4-((4-(pyridin-4-ylamino)phenyl)sulfonyl)phenyl)quinolin-4-amine], the IC50 in data set [1] was 0.25 ± 0.04 µM. Moreover, in data set [2], the MIC50 was in the range of 8 to 32 µM (≈ 3.97 to 15.9 µg/mL). In addition, the antimycobacterial activity result in data set [3] was “concentration-dependent antimycobacterial activity”.
As to `COc1ccc2nc(C)cc(Nc3ccc(Cc4ccc(Nc5ccncn5)cc4)cc3)c2c1` [Compound 68, 6-methoxy-2-methyl-N-(4-(4-(pyrimidin-4-ylamino)benzyl)phenyl)quinolin-4-amine], the IC50 in data set [1] was 2.03 µM and 1.7 µM. For the same molecule, in data set [2], the MIC50 fell in the range of 2 to 8 µM (≈ 0.895 to 3.58 µg/mL). Moreover, the “PAMPA flux [%]” value in data set [4] was found to be 41.00%. In data set [3], the antimycobacterial activity result is given as “concentration-dependent antimycobacterial activity”. The “antimycobacterial activity in infected human macrophages” value in data set [5] is recorded as “concentration-dependent antimycobacterial activity”. For the same molecule, the cytotoxicity towards macrophages result in data set [6] is recorded as “without being toxic”.
For the molecule `COc1ccc2nc(C)cc(Nc3ccc(C(=O)c4ccc(Nc5ccncc5)cc4)cc3)c2c1` [Compound 45, (4-((6-methoxy-2-methylquinolin-4-yl)amino)phenyl)(4-(pyridin-4-yl-amino)phenyl)methanone], in data set [1], the IC50 was found to be 1.04 ± 0.2 µM. Also, the MIC50 in data set [2] was over 32 µM.
As for `COc1ccc2nc(C)cc(Nc3ccc(O)cc3)c2c1` [Compound 1, 4-((6-Methoxy-2-methylquinolin-4-yl)amino)phenol, reference compound], 11.5 ± 1.52 µM corresponded to half-maximal inhibition in data set [1] (IC50). In addition, the “PAMPA flux [%]” value in data set [4] is recorded as 12.60%.
As to `COc1ccc2nc(C)cc(Nc3ccc(Cc4ccc(N)cc4)cc3)c2c1` [Compound 8, N-(4-(4-aminobenzyl)phenyl)-6-methoxy-2-methylquinolin-4-amine], in data set [1], the IC50 is 1.8 µM. For the same molecule, in data set [2], the MIC50 was in the range of 4 to 8 µM (≈ 1.48 to 2.96 µg/mL). The “PAMPA flux [%]” value in data set [4] came out at 29.70%. The antimycobacterial activity result in data set [3] was “concentration-dependent antimycobacterial activity”.
In turn, `COc1ccc2nc(C)cc(Nc3ccc(S(=O)(=O)c4ccc(NC(C)=O)cc4)cc3)c2c1` [Compound 10, N-(4-((4-((6-methoxy-2-methylquinolin-4-yl)amino)phenyl)sulfonyl)phenyl)acetamide] had an IC50 in data set [1] of 3.59 ± 1.95 µM.
In data set [1], `COC(=O)c1ccc(Nc2ccc(S(=O)(=O)c3ccc(Nc4cc(C)nc5ccc(OC)cc45)cc3)cc2)cc1` [Compound 27, methyl-4-((4-((4-((6-methoxy-2-methylquinolin-4-yl)amino)phenyl)sulfonyl)phenyl)amino) benzoate] yielded an IC50 of 4.8 ± 1.6 µM.
As to `COc1ccc2nc(C)cc(Nc3ccc(Cc4ccc(Nc5ccncc5)cc4)cc3)c2c1` [Compound 63, 6-methoxy-2-methyl-N-(4-(4-(pyridin-4-ylamino)benzyl)phenyl)quinolin-4-amine], the IC50 in data set [1] is 5.64 µM and 4.7 µM. Besides, in data set [2], the MIC50 lay within 8 to 32 µM (≈ 3.57 to 14.3 µg/mL). Besides, in data set [4], the “PAMPA flux [%]” value is on record as 53.60%.
Regarding `COc1ccc2nc(C)cc(Nc3ccc(S(=O)(=O)c4ccc(Nc5ccncn5)cc4)cc3)c2c1` [Compound 24, 6-methoxy-2-methyl-N-(4-((4-(pyrimidin-4-yl-amino)phenyl)sulfonyl)phenyl)quinolin-4-amine], the IC50 in data set [1] was found to be 0.51 ± 0.04 µM. Further, the MIC50 in data set [2] was in the range of 8 to 32 µM (≈ 3.98 to 15.9 µg/mL).
In data set [1], `COc1ccc2nc(C)cc(Nc3ccc(S(=O)(=O)c4ccc(N)cc4)cc3)c2c1` [Compound 9, N-(4-((4-aminophenyl)sulfonyl)phenyl)-6-methoxy-2-methylquinolin-4-amine] yielded an IC50 of 5.21 ± 0.24 µM.
`COc1ccc2nc(C)cc(Nc3ccc(S(=O)(=O)c4ccc(Nc5cc(C(C)(C)C)n[nH]5)cc4)cc3)c2c1` [Compound 25, N-(4-((4-((3-(tert-butyl)-1H-pyrazol-5-yl)amino)phenyl)sulfonyl)phenyl)-6methoxy-2-methylquinolin-4-amine] gave an IC50 in data set [1] of 9.1 ± 0.3 µM.
For the molecule `COc1ccc(Nc2ccc(S(=O)(=O)c3ccc(Nc4cc(C)nc5ccc(OC)cc45)cc3)cc2)cc1` [Compound 26, 6-methoxy-N-(4-((4-((4-methoxyphenyl)amino)phenyl)sulfonyl)phenyl)-2-methylquinolin-4-amine], the IC50 in data set [1] worked out at 1.9 ± 0.8 µM. For the same molecule, the MIC50 in data set [2] lay in the range of 8 to 32 µM (≈ 4.21 to 16.8 µg/mL).

The IC50 is the concentration needed to halve the response being measured. Higher therefore signals lower potency.

Values taken from patent US11078185B2, “Mycobacterium tuberculosis—thioredoxin reductase inhibitor as an antitubercular agent” (Technische Universität Dortmund, priority 2017, dated 2021).
